Data as given in publication PMC6790288 (The journal of pain : official journal of the American Pain …, 2019).
Where two headings read alike, the source gives them in different places.

What was measured:
cold-induced pain = assay: Cold pressor test; type: in vivo, human
healthy participants [1] = assay: Abuse liability visual analog scales; type: in vivo, human; conditions: trial A, n = 43, 0–100 mm VAS after seventh dose, M (SD)
[2] = 12 participants, 5 days rifampicin, 100 mg oral tramadol; cited from earlier work
[3] = cited from earlier work
healthy participants [4] = assay: Drug-related adverse events
pupil diameter = assay: Pupillometry; type: in vivo, human; conditions: trial A; for Pupil diameter, predose: before first dose of segment
[5] = for (+)-M1 Cssmax 90% CI (bioequivalence ratio desmetramadol vs tramadol) / (+)-M1 Cssmin 90% CI (bioequivalence ratio desmetramadol vs tramadol) / (−)-M1 Cssmax 90% CI (bioequivalence ratio desmetramadol vs tramadol) / (−)-M1 Cssmin 90% CI (bioequivalence ratio desmetramadol vs tramadol): bioequivalent if within .80 to 1.25
healthy participants [6] = assay: Respiratory rate; conditions: trial B (with paroxetine), n = 60; MPD (SD)
[7] = in vivo, po; cited from earlier work
μ-opioid receptor = conditions: read-out: μ-opioid receptor affinity (Ki); in vitro, racemic M5; cited from earlier work
[8] = target: norepinephrine transporter; conditions: read-out: norepinephrine transporter Ki; in vitro functional potency; cited from earlier work
[9] = test system: serotonin reuptake transporter; conditions: cited from earlier work
[10] = trial A, listed as desmetramadol

## CN(C)C[C@H]1CCCC[C@]1(O)c1cccc(O)c1 [Desmetramadol, O-desmethyltramadol]
cold-induced pain; trial A
  average duration of tolerance to pain: 63 s
cold-induced pain; trial A, mean [SE]
  tolerance to pain, mean paired increase relative to placebo: 12.6 [3.8] seconds
cold-induced pain; trial B (with paroxetine), male participants
  pain tolerated longer after desmetramadol than after tramadol: 44%
cold-induced pain; trial B (with paroxetine), male participants, mean [SE]
  tolerance to pain, mean paired increase relative to placebo: 9.9 [1.9] seconds
cold-induced pain; trial B (with paroxetine), male population n = 42, mean [SE]
  change in paired cold-induced pain scores at 30 seconds compared with placebo: −.75 [.28] 0−10 VAS
Healthy participants [1]
  Drug liking-disliking: 47 (25) mm
  Strength of drug effect: 29 (28) mm
  Take drug again: 43 (26) mm
Healthy participants [1]; listed as desmetramadol
  Strength of drug effect: 29 [28] mm
[2]
  decrease of AUC by rifampicin induction: 54%
  increase of M1 formation rate by rifampicin induction: 12%
[3]
  lethal M1 blood concentrations exceed therapeutic levels: ≤ 50 fold
Healthy participants [4]; trial A
  Deaths: 0(0) n (%)
  Severe AEs: 0 (0) n (%)
  participants reporting drug-related AEs: 44%
Healthy participants [4]; trial A, all
  Dizziness: 6(14) n (%)
  Euphoria: 0 (0) n (%)
  Feel abnormal: 0 (0) n (%)
  Feel hot: 0 (0) n (%)
  Headache: 3 (7) n (%)
  Nausea: 8(19) n (%)
  Presyncope: 0 (0) n (%)
  Pruritus: 3 (7) n (%)
  Somnolence: 3 (7) n (%)
  Spasticity: 0 (0) n (%)
  Sweating: 0 (0) n (%)
  Vomiting: 1 (2) n (%)
Healthy participants [4]; trial A, male
  Dizziness: 6(14) n (%)
  Euphoria: 0 (0) n (%)
  Feel abnormal: 0 (0) n (%)
  Feel hot: 0 (0) n (%)
  Headache: 3 (7) n (%)
  Nausea: 8(19) n (%)
  Presyncope: 0 (0) n (%)
  Pruritus: 3 (7) n (%)
  Somnolence: 3 (7) n (%)
  Spasticity: 0 (0) n (%)
  Sweating: 0 (0) n (%)
  Vomiting: 1 (2) n (%)
Healthy participants [4]; trial A, n = 43 (all male)
  All drug-related AEs: 19 (44) n (%)
Healthy participants [4]; trial B
  Deaths: 0 (0) n (%)
  Severe AEs: 0 (0) n (%)
Healthy participants [4]; trial B (with paroxetine)
  participants reporting drug-related AEs: 67%
Healthy participants [4]; trial B (with paroxetine), n = 60
  All drug-related AEs: 40 (67) n (%)
Healthy participants [4]; trial B, all
  Dizziness: 12 (20) n (%)
  Euphoria: 2 (3) n (%)
  Feel abnormal: 3 (5) n (%)
  Feel hot: 3 (5) n (%)
  Headache: 10(17) n (%)
  Nausea: 16(27) n (%)
  Presyncope: 6(10) n (%)
  Pruritus: 4 (7) n (%)
  Somnolence: 10(17) n (%)
  Spasticity: 3 (5) n (%)
  Sweating: 2 (3) n (%)
  Vomiting: 9(15) n (%)
Healthy participants [4]; trial B, female
  Dizziness: 5 (28) n (%)
  Euphoria: 1 (6) n (%)
  Feel abnormal: 1 (6) n (%)
  Feel hot: 1 (6) n (%)
  Headache: 6(33) n (%)
  Nausea: 5 (28) n (%)
  Presyncope: 3(17) n (%)
  Pruritus: 3(17) n (%)
  Somnolence: 6(33) n (%)
  Spasticity: 0 (0) n (%)
  Sweating: 0 (0) n (%)
  Vomiting: 3(17) n (%)
Healthy participants [4]; trial B, male
  Dizziness: 7(17) n (%)
  Euphoria: 1 (2) n (%)
  Feel abnormal: 2 (5) n (%)
  Feel hot: 2 (5) n (%)
  Headache: 4(10) n (%)
  Nausea: 11 (26) n (%)
  Presyncope: 3 (7) n (%)
  Pruritus: 1 (2) n (%)
  Somnolence: 4(10) n (%)
  Spasticity: 3 (7) n (%)
  Sweating: 2 (5) n (%)
  Vomiting: 6(14) n (%)
Pupil diameter; after dosing, mean (SD)
  pupil diameter, mean paired reduction compared with placebo: −1.1 (.8) mm
Pupil diameter; n = 43, M (SD)
  Pupil diameter, after seventh dose: 5.1 (1.2) mm
  Pupil diameter, predose: 6.0 (1.1) mm
Pupil diameter; n = 43, M (SD), listed as desmetramadol
  Pupil diameter, predose: 6.0 [1.1] mm
[5]; steady state plasma
  change of (+)-M1 Cssmax, trial B (paroxetine) compared with trial A: 41%
  change of (+)-M1 Cssmin, trial B (paroxetine) compared with trial A: 46%
[5]; trial A
  (−)-M1 Cssmin and Cssmax lower for desmetramadol compared with tramadol: 30%
  (+)-M1 Cssmax 90% CI (bioequivalence ratio desmetramadol vs tramadol): .88–1.13
  (+)-M1 Cssmin 90% CI (bioequivalence ratio desmetramadol vs tramadol): .85–1.08
  (−)-M1 Cssmax 90% CI (bioequivalence ratio desmetramadol vs tramadol): .67-.76
  (−)-M1 Cssmin 90% CI (bioequivalence ratio desmetramadol vs tramadol): .69-.76
[5]; trial A, CYP2D6 poor metabolizer
  mean (+)-M1 in the poor metabolizer: 41 ng/mL
[5]; trial A, CYP2D6 ultrarapid metabolizer
  mean (+)-M1 in the ultrarapid metabolizer: 22 ng/mL
[5]; trial A, poor metabolizer
  increase of mean desmetramadol (+)-M1 compared with tramadol (+)-M1: 650%
[5]; trial A, ultrarapid metabolizer
  decrease of mean desmetramadol (+)-M1 compared with tramadol (+)-M1: 40%
[5]; [10]
  (+)-M1 Cssmax 90% CI (bioequivalence ratio desmetramadol vs tramadol): .88 −1.13
  (+)-M1 Cssmin 90% CI (bioequivalence ratio desmetramadol vs tramadol): .85−1.08
  (−)-M1 Cssmax 90% CI (bioequivalence ratio desmetramadol vs tramadol): .67 −.76
  (−)-M1 Cssmin 90% CI (bioequivalence ratio desmetramadol vs tramadol): .69−.76
[5]; trial B (with paroxetine)
  desmetramadol (+)-M1 Cssmin and Cssmax exceed corresponding tramadol values: 3.5 fold
  (+)-M1 Cssmax 90% CI (bioequivalence ratio desmetramadol vs tramadol): 3.4–4.3
  (+)-M1 Cssmin 90% CI (bioequivalence ratio desmetramadol vs tramadol): 3.4–4.3
  (−)-M1 Cssmax 90% CI (bioequivalence ratio desmetramadol vs tramadol): .93–1.07
  (−)-M1 Cssmin 90% CI (bioequivalence ratio desmetramadol vs tramadol): .95–1.09
[5]; trial B vs trial A
  increase of steady-state (−)-M1 by paroxetine: approximately 15%
[5]; trial B vs trial A, steady state
  increase of plasma (+)-M1 by paroxetine: approximately 40%
Healthy participants [6]
  Average postdose respiratory rate, mean paired difference versus placebo: −.30 [.90] min^−1

## COc1ccc2c3c1O[C@H]1C(=O)CC[C@H]4[C@@H](C2)N(C)CC[C@]314 [Hydrocodone, hydrocodone]
[7]
  lethal oral dose: 90 mg

## CNCC1CCCCC1(O)c1cccc(O)c1 (stereo not shown) [M5, O,N-didesmethyltramadol]
μ-opioid receptor
  Ki: 100 nM

## CC[C@@H](c1cccc(O)c1)[C@@H](C)CN(C)C [Tapentadol]
[8]
  Ki: 480 nM
[9]
  activity at the serotonin reuptake transporter: no activity

## COc1ccc2c3c1O[C@H]1C(=O)CC[C@@]4(O)[C@@H](C2)N(C)CC[C@]314 [Oxycodone, oxycodone]
[7]
  lethal oral dose: 40 mg
